From PMC5704756, “Hydrolysis, polarity, and conformational impact of C-terminal partially fluorinated ethyl esters in peptide models” (Beilstein Journal of Organic Chemistry, 2017)
Where “and” joins values, the source holds several entries; their conditions need not be identical. Equal values may be shown once. Read-outs that look alike come from different tables or passages of the source. Peptide text beside a SMILES is read from it. * marks the point of attachment. X1 = FC(F)CO*

Experiments:
[1] = Hydrolytic stability of esters 1–5 in aqueous potassium phosphate buffer, monitored by 1H and 19F NMR; assay type: physicochemical; conditions: for half-life at 0.5 mM: aqueous potassium phosphate buffer; for τ½, min (aq buffer): ester hydrolysis
Source text: The kinetic stability of the ester linkage in the aqueous medium is of critical importance, as it further defines the time window for the reactions with the corresponding esters under the biologically relevant conditions of aqueous buffers. Hydrolysis of the C-terminal esters has been fairly well described in the literature, indicating the hydrolysis occurs via a pseudo-first order reaction in a buffered medium assuming that [HO^−] is constant (Equations 1–3): […]
Next, we determined the half-life values following the above mentioned kinetic model for esters 1–5 in aqueous medium at pH 11 and 298 K (Figure 2). […] For the subsequent fluorine atoms, the hydrolysis rate increased by a factor of 3–4 for each appended fluorine atom. […] Extrapolation to pH 8.0 gives a value of 107 ± 28 hours. (This procedure requires multiplication by 1000.) We experimentally determined the half-life of 5 at pH 8 to be 102 ± 2 hours, which agrees well with the extrapolation. The mutual consistency of the values determined with different kinetic modes (minutes at pH 11, days at pH 8) provides a good indication of their accuracy.
Aqueous potassium phosphate buffer (100 mM) at pH 11.0 or 8.0 was mixed with 1:10 (v/v) deuterium oxide to give 550 μL of 91 mM buffer. The analyte 1–5 was added from a 200 mM stock solution in deuterium oxide to give 0.5 mM analyte. The first NMR spectra were collected within 4 min following addition of the analyte. The monitoring was continued by recording ^1H and ^19F NMR spectra at regular time points until >50% hydrolysis. Ambient temperature was maintained at 298 ± 1 K. The decay of the integral intensity of the analyte was quantified by integration. Plotting the logarithm of the intensity versus time delivered the kinetic constant, which was converted to the half-life time (squared correlation coefficient > 0.90). The experiments were performed in triplicate.

[2] = Partitioning between octan-1-ol and water (NMR detection); assay type: physicochemical; conditions: for ΔlogP vs 4: relative to compound 4; for logP at 24 h: 298 K, 24 hours partitioning, NMR
Experimental: To characterize the lipophilicity, esters 1–5 were subjected to 24 hours of partitioning between octan-1-ol and water at 298 K. The resulting partition is illustrated in Figure 3. […] The lipophilicity of 2,2-difluoroethyl derivative 4 is nearly identical to that of parent ethyl ester 2, and the relative difference in the logP from the increase (5 vs 4, ΔlogP = +0.53 ± 0.13) and decrease (3 vs 4, ΔlogP = −0.45 ± 0.13) in the number of fluorine atoms are equivalent to one methyl group difference (2 vs 1, ΔlogP = +0.44 ± 0.08). The amplitude of the change is similar to that reported recently for the corresponding fluorinated ethanols. Importantly, C-terminal esterification maintains a much higher lipophilicity compared with the C-terminal amide 7 (Table 1).
To 4–5 mg analyte, octan-1-ol (1.00 mL) and deionized water (1.00 mL) were added. The mixture was shaken gently at ambient temperature (298 ± 2 K) for 24 hours. Each phase (200 μL) was sampled using identical NMR tubes, and acetonitrile-d3 (300 μL) was added to each sample. The NMR measurements were performed by ^1H or ^19F detection at 298 K using calibrated 90-degree pulses and one-scan experiments in order to ensure complete pre-relaxation. The same acquisition parameters were used for the octan-1-ol and water samples; for processing, only the zero phase was adjusted. The spectra were baseline corrected, and equivalent resonances were integrated. The ratio between the signal intensities was considered as the partitioning constant. The partitioning experiments were performed in triplicate. Subsequent addition of water and octan-1-ol was performed in forward and reverse manner, and the resulting partitioning constants were identical within experimental error.

[3] = Amide rotational thermodynamics and kinetics (trans/cis isomerism) by NMR / EXSY; assay type: physicochemical; conditions: for Ktrans/cis in C6D6: C6D6 (ε 2.27); for Ktrans/cis in C6D6 / Ktrans/cis in CD2Cl2 / Ktrans/cis in CD3CN / Ktrans/cis in CD3OD / Ktrans/cis in CDCl3 / Ktrans/cis in D2O: 298 K; for Ktrans/cis in C6D6 / Ktrans/cis in D2O: analyte 50 ± 10 mM; for k∙10^3 cis→trans in C6D6 / k∙10^3 trans→cis in C6D6: C6D6, 298 K; for k∙10^3 cis→trans in C6D6 / k∙10^3 trans→cis in C6D6 / k∙10^3 cis→trans in D2O / k∙10^3 trans→cis in D2O: EXSY NMR, amide rotation, value is k∙10^3; for Ktrans/cis in CD2Cl2: CD2Cl2 (ε 8.93); for Ktrans/cis in CD3OD: CD3OD (ε 32.7); for Ktrans/cis in CDCl3: CDCl3 (ε 4.81); for Ktrans/cis in D2O: D2O (ε 80.1), 1H/19F NMR; for k∙10^3 cis→trans in D2O / k∙10^3 trans→cis in D2O: 310 K
Source text: For 1–5, we found the trans/cis ratios ≈ 5 for all five esters when measured in aqueous medium; the kinetic parameters of the amide rotation were also nearly identical (Table 2). We then noticed that the trans/cis ratios measured for the fluorine-labeled esters 3–5 in nonpolar solvents (such as benzene) were systematically higher relative to the reference compounds 1 and 2. We tested the relative increase in the trans-amide preference ΔΔG as a function of solvent (Equation 4) and found a dependence of this parameter on the dielectric constant, as would be expected from an electrostatic interaction between the polar alkoxy group and the amide moiety (Figure 4).
The amide rotational thermodynamic and kinetic measurements were performed by NMR as described in [50, 68]. The equilibrium ratio between the rotameric states was obtained from the ^1H, ^19F and ^19F{^1H} (inverse-gated decoupling) spectra at 298 K by integration. The kinetics was measured in ^1H and/or ^19F{^1H} z-cross-relaxation experiments at either 310 K (for deuterium oxide samples) or 298 K (for benzene samples). The Jαβ-coupling values were obtained by visual inspection of the α-CH resonances in the ^1H NMR spectra, and the accuracy was defined by the length of the time domain spectrum at approximately 0.3 Hz. The semi-empirical calculations were performed by using the PM6 algorithm from the MOPAC package. DFT geometry optimization of the 5 amide rotamers was performed using B88-PW91 GGA with the DZVP basis set.

[4] = Hydrolysis of C-terminal 2,2-difluoroethyl esters of oligopeptides in buffered deuterium oxide by 19F NMR; assay type: physicochemical; conditions: for τ½ of ester hydrolysis (value in brackets, alternative kinetic model) / τ½ of ester hydrolysis (value outside brackets): buffered deuterium oxide, pH 7.0, 298 K; for τ½ of ester hydrolysis (value in brackets, alternative kinetic model): first (zero) order kinetic model; for τ½ of ester hydrolysis (value outside brackets): Equation 7 (zero order), first (zero) order model; for charge-induced hydrolysis acceleration factor vs 8b: pH 7, 9b, 10b vs 8b
Source text: Finally, we tested hydrolytic stability in esterified peptides 8b, 9b and 10b by observing hydrolysis of the ester using ^19F NMR in buffered deuterium oxide (pH 7). We expected pseudo-first order kinetics as for the hydrolysis of esters 1–5 at pH 11. Nonetheless, for the peptide esters 8b, 9b and 10b, the experimental decay (Figure 7) of the ester concentration resembled pseudo-zero order kinetics, which was also observed for another amino acid ester hydrolysis not shown here.
Circular dichroism spectra were recorded in a 1 mm quartz cell at 298 K in methanol (HPLC grade) or aqueous potassium phosphate buffer (50 mM, pH 7.01 at 297 K). The peptide concentration was 100 μM as determined gravimetrically. The mean residue absorption difference Δε was calculated assuming 6 residues for peptides 8a–c, 10a–c and 3 residues for peptides 9a–c. Hydrolysis was measured in deuterium oxide solution of a 150 mM potassium phosphate buffer. The buffer pH 7.01 was adjusted in water at 298 K. It was then lyophilized, then dissolved in deuterium oxide. The peptides were dissolved in the buffer, and the resulting samples were kept at 298 ± 2 K, while the ^19F NMR measurements were conducted at several time points. The starting concentrations of the analytes were 8 mM for 8b, 5 mM for 9b and 2.5 mM for 10b. The half-life was calculated using the first (zero) order kinetic model.

[5] = design: method as in doi:10.1002/ijch.201600106; conditions: 310 K, amide rotation, value is k∙10^3, ref [69]; cited from earlier work
[6] = pH 11.0, 298 K, pseudo-first order

Structure (SMILES) | τ½, min (aq buffer) [1, 6] | logP at 24 h ([2]; octan-1-ol/water) | Ktrans/cis in C6D6 [3] | Ktrans/cis in CD2Cl2 [3] | Ktrans/cis in CD3CN [3] | Ktrans/cis in CD3OD [3] | Ktrans/cis in CDCl3 [3] | Ktrans/cis in D2O [3] | τ½ of ester hydrolysis (value in brackets, alternative kinetic model) [4] | k∙10^3 cis→trans in C6D6 [3] | k∙10^3 trans→cis in C6D6 [3] | k∙10^3 cis→trans in D2O [3] | k∙10^3 trans→cis in D2O [3] | further results
CC(=O)N1CCC[C@H]1C(=O)OCC(F)(F)F [compound 5, 2,2,2-Trifluoroethyl N-acetylprolinate] | 6.4 ± 1.7 min | 0.55 | 10.04 ± 0.15 | 7.07±0.11 | 5.65±0.05 | 4.49±0.05 | 6.65±0.18 | 5.48 ± 0.14 | – | 477 ± 13 s^−1 | 48 ± 2 s^−1 | 35 ± 5 s^−1 | 6 ± 1 s^−1 | half-life at 0.5 mM ([1]; pH 8, extrapolated from pH 11 value (multiplication by 1000), read-out: half-life, extrapolation to pH 8.0 (converted)): 107 ± 28 h; half-life at 0.5 mM ([1]; pH 8, pH 8, 298 K, read-out: half-life at pH 8, experimentally determined (converted)): 102 ± 2 h; τ½, min (aq buffer) ([1]; pH 8.0, 298 K): 6112 ± 70 min; ΔlogP vs 4 ([2]; octan-1-ol/water): +0.53 ± 0.13
COC(=O)C1CCCN1C(C)=O (stereo not drawn) [compound 1, Methyl N-acetylprolinate] | 224 ± 20 (pH 11.0) min | -0.44 ± 0.05 | 5.10 ± 0.10 | 4.18±0.03 | 4.08±0.04 | 3.78±0.03 | 3.84±0.04 | 4.94 ± 0.05 | – | 342 ± 10 s^−1 | 67 ± 2 s^−1 | – | – | k∙10^3 cis→trans in D2O [5]: 33 ± 2^c s^−1; k∙10^3 trans→cis in D2O [5]: 7.0 ± 0.5^c s^−1
CC(=O)N1CCC[C@H]1C(=O)OCC(F)F [compound 4, 2,2-Difluoroethyl N-acetylprolinate] | 19.7 ± 2.5 (pH 11.0) min | 0.02 | 9.06 ± 0.26 | 6.57±0.14 | 4.85±0.07 | 4.12±0.03 | 6.29±0.22 | 4.95 ± 0.05 | – | 430 ± 17 s^−1 | 47 ± 2 s^−1 | 32 ± 4 s^−1 | 7 ± 1 s^−1 | half-life at 0.5 mM ([1]; pH 7, extrapolated from pH 11 value, read-out: half-life extrapolated to pH 7.0 (converted)): 3290 h
CCOC(=O)C1CCCN1C(C)=O (stereo not drawn) [compound 2, Ethyl N-acetylprolinate] | 603 ± 58 (pH 11.0) min | 0 | 4.67 ± 0.03 | 3.52±0.03 | 3.58±0.04 | 3.49±0.04 | 3.20±0.04 | 4.60 ± 0.08 | – | 309 ± 14 s^−1 | 67 ± 2 s^−1 | 20 ± 5 s^−1 | 6 ± 1 s^−1 | ΔlogP vs 1 ([2]; octan-1-ol/water, relative to compound 1): +0.44 ± 0.08
CC(=O)N1CCC[C@H]1C(=O)OCCF [compound 3, 2-Fluoroethyl N-acetylprolinate] | 80 ± 14 (pH 11.0) min | – | 6.80 ± 0.04 | 4.77±0.10 | 4.12±0.17 | 3.61±0.03 | 4.44±0.20 | 4.74 ± 0.04 | – | 348 ± 11 s^−1 | 52 ± 2 s^−1 | 30 ± 2 s^−1 | 7 ± 1 s^−1 | logP at 24 h [2]: -0.43 ± 0.07; ΔlogP vs 4 ([2]; octan-1-ol/water): −0.45 ± 0.13
CC(=O)N1CCC[C@H]1C(N)=O [compound 7, reference compound] | – | -1.57 ± 0.1 | – | – | – | – | – | – | – | – | – | – | – | –

More lines, main results first:

τ½, min (aq buffer) [1, 6] | logP at 24 h ([2]; octan-1-ol/water) | Ktrans/cis in C6D6 [3] | Ktrans/cis in CD2Cl2 [3] | Ktrans/cis in CD3CN [3] | Ktrans/cis in CD3OD [3] | Ktrans/cis in CDCl3 [3] | Ktrans/cis in D2O [3] | τ½ of ester hydrolysis (value in brackets, alternative kinetic model) [4] | Structure (SMILES) | k∙10^3 cis→trans in C6D6 [3] | k∙10^3 trans→cis in C6D6 [3] | k∙10^3 cis→trans in D2O [3] | k∙10^3 trans→cis in D2O [3] | further results
– | – | – | – | – | – | – | – | 139 ± 20 days | CC(=O)N1CCC[C@H]1C(=O)N1CCC[C@H]1C(=O)N1CCC[C@H]1C(=O)N1CCC[C@H]1C(=O)N1CCC[C@H]1C(=O)N1CCC[C@H]1C(=O)OCC(F)F [peptide 8b, Ac(Pro)6OCH2CHF2] (Ac-PPPPPP-X1) | – | – | – | – | –
– | – | – | – | – | – | – | – | 4.5 ± 0.5 days | CC(=O)N[C@@H](CCCCN)C(=O)N[C@@H](CCCCN)C(=O)N[C@@H](CCCCN)C(=O)OCC(F)F [peptide 9b, Ac(Lys)3OCH2CHF2∙3HCl] | – | – | – | – | τ½ of ester hydrolysis (value outside brackets) [4]: 5.0 ± 0.3 days and 5.0 ± 0.5 days; charge-induced hydrolysis acceleration factor vs 8b [4]: ≈ 30
– | – | – | – | – | – | – | – | 3.7 ± 0.3 days | CC(=O)N[C@@H](CCCCN)C(=O)N[C@@H](CCCCN)C(=O)N[C@@H](CCCCN)C(=O)N[C@@H](CCCCN)C(=O)N[C@@H](CCCCN)C(=O)N[C@@H](CCCCN)C(=O)OCC(F)F [peptide 10b, Ac(Lys)6OCH2CHF2∙6HCl] | – | – | – | – | τ½ of ester hydrolysis (value outside brackets) [4]: 4.0 ± 0.3 days; charge-induced hydrolysis acceleration factor vs 8b [4]: ≈ 30
